Assay type in all cases: functional
The test system of assay [1] is Staphylococcus aureus. In words: Antibacterial activity against Staphylococcus aureus 209P JC1 after 20 hrs by agar dilution method. As to conditions: 209P JC1, 20 h. For orientation: Agar dilution tests growth on a series of plates holding different concentrations.
Assay [2] relates to Streptococcus pneumoniae. In words: Antibacterial activity against Streptococcus pneumoniae DP1 type 1 after 20 hrs by agar dilution method. As to conditions: DP1 type1, 20 h.
Assay [3] deals with Streptococcus pneumoniae. In words: Antibacterial activity against Streptococcus pneumoniae 5 expressing constitutive ermB methylase after 20 hrs by agar dilution method. As to conditions: Streptococcus pneumoniae, 5, 20 h.
For assay [4], the system named is Streptococcus pneumoniae. In words: Antibacterial activity against Streptococcus pneumoniae 6 expressing constitutive ermB methylase and mefA after 20 hrs by agar dilution method. As to conditions: Streptococcus pneumoniae, 6, 20 h.
Assay [5] deals with Streptococcus pneumoniae. In words: Antibacterial activity against Streptococcus pneumoniae 7 expressing constitutive ermB methylase after 20 hrs by agar dilution method. As to conditions: Streptococcus pneumoniae, 7, 20 h.
The test system of assay [6] is Streptococcus pneumoniae. Briefly: Antibacterial activity against Streptococcus pneumoniae 8 expressing inducible ermB methylase after 20 hrs by agar dilution method. As to conditions: Streptococcus pneumoniae, 8, 20 h.
Assay [7] relates to Streptococcus pneumoniae. Briefly: Antibacterial activity against Streptococcus pneumoniae 9 expressing inducible ermB methylase after 20 hrs by agar dilution method. As to conditions: Streptococcus pneumoniae, 9, 20 h.
The subject of assay [8] is Streptococcus pneumoniae. In words: Antibacterial activity against Streptococcus pneumoniae 10 expressing mefA efflux pump after 20 hrs by agar dilution method. As to conditions: Streptococcus pneumoniae, 10, 20 h.
Assay [9] relates to Streptococcus pneumoniae. Briefly: Antibacterial activity against Streptococcus pneumoniae 11 expressing mefA efflux pump after 20 hrs by agar dilution method. As to conditions: Streptococcus pneumoniae, 11, 20 h.
Assay [10] has as its system Streptococcus pyogenes. In words: Antibacterial activity against Streptococcus pyogenes Cook after 20 hrs by agar dilution method.
Assay [11] concerns Streptococcus pyogenes. In words: Antibacterial activity against Streptococcus pyogenes 2 expressing constitutive ermB methylase after 20 hrs by agar dilution method. As to conditions: Streptococcus pyogenes, 2, 20 h.
Assay [12] concerns Streptococcus pyogenes. Briefly: Antibacterial activity against Streptococcus pyogenes 3 expressing mefA efflux pump after 20 hrs by agar dilution method. As to conditions: Streptococcus pyogenes, 3, 20 h.
Assay [13] has as its system Haemophilus influenzae. In words: Antibacterial activity against Haemophilus influenzae 1 after 20 hrs by agar dilution method. As to conditions: Haemophilus influenzae, 1, 20 h.
Assay [14] has as its system Haemophilus influenzae. Briefly: Antibacterial activity against Haemophilus influenzae 2 after 20 hrs by agar dilution method. As to conditions: Haemophilus influenzae, 2, 20 h.
In assay [15] the test system is Haemophilus influenzae. Briefly: Antibacterial activity against Haemophilus influenzae 3 after 20 hrs by agar dilution method. As to conditions: Haemophilus influenzae, 3, 20 h.

Converted amounts (≈) assume the structure as drawn. Some results are limits rather than exact numbers.

`CCCNC(=O)O[C@H]1[C@H](C)O[C@@H](O[C@H]2[C@H](N(C)C)[C@@H](O)[C@H](O[C@H]3[C@@H](CC=O)C[C@@H](C)[C@@H](O)CN(C)CCC[C@H](C/C=C/c4cnc5ccccc5c4)OC(=O)C[C@@H](OC(=O)CC)[C@@H]3OC)O[C@@H]2C)C[C@@]1(C)OC(=O)CC`: the MIC was found to be 0.5 µg/mL (≈ 0.467 µM) in assay [1]; 0.03 µg/mL (≈ 0.028 µM) in assay [2]; 16 µg/mL (≈ 14.9 µM) in assay [3]; 32 µg/mL (≈ 29.9 µM) in assay [4]; 16 µg/mL (≈ 14.9 µM) in [5]; 0.25 µg/mL (≈ 0.233 µM) in [6]. Moreover, the MIC in [7] came to 0.25 µg/mL (≈ 0.233 µM); in assay [8], 0.06 µg/mL (≈ 0.056 µM); in [9], 0.06 µg/mL (≈ 0.056 µM); in assay [10] it was 0.13 µg/mL (≈ 0.121 µM); in assay [11], 64 µg/mL (≈ 59.7 µM); in [12], 0.25 µg/mL (≈ 0.233 µM). Moreover, the MIC in assay [13] turned out to be 8 µg/mL (≈ 7.47 µM); in [14], 32 µg/mL (≈ 29.9 µM); in assay [15] it was 32 µg/mL (≈ 29.9 µM).

As for `CCC(=O)O[C@@H]1CC(=O)O[C@@H](C/C=C/c2cnc3ccccc3c2)CCCN(C)C[C@H](O)[C@H](C)C[C@H](CC=O)[C@H](O[C@@H]2O[C@H](C)[C@@H](O[C@H]3C[C@@](C)(OC(=O)CC)[C@@H](OC(=O)NC(C)C)[C@H](C)O3)[C@H](N(C)C)[C@H]2O)[C@H]1OC`, the MIC turned out to be 0.5 µg/mL (≈ 0.467 µM) in assay [1]; 0.03 µg/mL (≈ 0.028 µM) in assay [2]; 16 µg/mL (≈ 14.9 µM) in assay [3]; 16 µg/mL (≈ 14.9 µM) in assay [4]; 16 µg/mL (≈ 14.9 µM) in assay [5]; 0.25 µg/mL (≈ 0.233 µM) in assay [6]. Besides, the MIC is 0.25 µg/mL (≈ 0.233 µM) in assay [7]; 0.06 µg/mL (≈ 0.056 µM) in [8]; 0.13 µg/mL (≈ 0.121 µM) in assay [9]; 0.13 µg/mL (≈ 0.121 µM) in assay [10]; 32 µg/mL (≈ 29.9 µM) in assay [11]; 0.25 µg/mL (≈ 0.233 µM) in assay [12]. For the same compound, the MIC was 8 µg/mL (≈ 7.47 µM) in assay [13], 32 µg/mL (≈ 29.9 µM) in assay [14] and 32 µg/mL (≈ 29.9 µM) in [15].

As to `CCC(=O)O[C@@H]1CC(=O)O[C@@H](C/C=C/c2cnc3ccccc3c2)CCCN(C)C[C@H](O)[C@H](C)C[C@H](CC=O)[C@H](O[C@@H]2O[C@H](C)[C@@H](O[C@H]3C[C@@](C)(OC(=O)CC)[C@@H](OC(=O)N(C)C)[C@H](C)O3)[C@H](N(C)C)[C@H]2O)[C@H]1OC`, the MIC is 0.25 µg/mL (≈ 0.236 µM) in assay [1]; 0.03 µg/mL (≈ 0.0284 µM) in assay [2]; 32 µg/mL (≈ 30.3 µM) in [3]; more than 32 µg/mL in assay [4]; more than 32 µg/mL in [5]; 0.25 µg/mL (≈ 0.236 µM) in [6]. For the same compound, the MIC was 0.5 µg/mL (≈ 0.473 µM) in assay [7]; 0.06 µg/mL (≈ 0.0567 µM) in [8]; 0.06 µg/mL (≈ 0.0567 µM) in assay [9]; 0.06 µg/mL (≈ 0.0567 µM) in assay [10]; more than 32 µg/mL in [11]; 0.06 µg/mL (≈ 0.0567 µM) in [12]. Moreover, the MIC worked out at 8 µg/mL (≈ 7.57 µM) in assay [13], 32 µg/mL (≈ 30.3 µM) in assay [14] and 32 µg/mL (≈ 30.3 µM) in assay [15].

On to `CCC(=O)O[C@@H]1CC(=O)O[C@@H](C/C=C/c2cnc3ccccc3c2)CCCN(C)C[C@H](O)[C@H](C)C[C@H](CC=O)[C@H](O[C@@H]2O[C@H](C)[C@@H](O[C@H]3C[C@@](C)(OC(=O)CC)[C@@H](OC(=O)NCCO)[C@H](C)O3)[C@H](N(C)C)[C@H]2O)[C@H]1OC`, for which the MIC is 0.5 µg/mL (≈ 0.466 µM) in assay [1]; 0.015 µg/mL (≈ 0.014 µM) in assay [2]; more than 32 µg/mL in assay [3]; 32 µg/mL (≈ 29.8 µM) in assay [4]; 32 µg/mL (≈ 29.8 µM) in assay [5]; 0.25 µg/mL (≈ 0.233 µM) in [6]. Besides, the MIC in [7] is 0.5 µg/mL (≈ 0.466 µM); in assay [8], 0.015 µg/mL (≈ 0.014 µM); in assay [9] it was 0.015 µg/mL (≈ 0.014 µM); in [10], 0.06 µg/mL (≈ 0.0559 µM); in assay [11], more than 32 µg/mL; in assay [12] it was 0.13 µg/mL (≈ 0.121 µM). Also, the MIC in assay [13] worked out at 4 µg/mL (≈ 3.73 µM); in assay [14], 16 µg/mL (≈ 14.9 µM); in assay [15] it was 16 µg/mL (≈ 14.9 µM).

For `CCNC(=O)O[C@H]1[C@H](C)O[C@@H](O[C@H]2[C@H](N(C)C)[C@@H](O)[C@H](O[C@H]3[C@@H](CC=O)C[C@@H](C)[C@@H](O)CN(C)CCC[C@H](C/C=C/c4ccnc5ccccc45)OC(=O)C[C@@H](OC(=O)CC)[C@@H]3OC)O[C@@H]2C)C[C@@]1(C)OC(=O)CC`, the MIC in [1] is 0.5 µg/mL (≈ 0.473 µM); in assay [2] it was 0.015 µg/mL (≈ 0.0142 µM); in assay [3] it was 64 µg/mL (≈ 60.5 µM); in assay [4] it was 64 µg/mL (≈ 60.5 µM); in assay [5], 64 µg/mL (≈ 60.5 µM); in assay [6], 0.5 µg/mL (≈ 0.473 µM). Further, the MIC in [7] was 0.5 µg/mL (≈ 0.473 µM); in assay [8], 0.03 µg/mL (≈ 0.0284 µM); in assay [9] it was 0.03 µg/mL (≈ 0.0284 µM); in assay [10], 0.06 µg/mL (≈ 0.0567 µM); in assay [11], more than 128 µg/mL; in [12] it was 0.25 µg/mL (≈ 0.236 µM). The values for the MIC in assay [13], in assay [14] and in [15] were 8 µg/mL (≈ 7.57 µM), 32 µg/mL (≈ 30.3 µM) and 16 µg/mL (≈ 15.1 µM), respectively.

With `CCNC(=O)O[C@H]1[C@H](C)O[C@@H](O[C@H]2[C@H](N(C)C)[C@@H](O)[C@H](O[C@H]3[C@@H](CC=O)C[C@@H](C)[C@@H](O)CN(C)CCC[C@H](C/C=C/c4cncc5ccccc45)OC(=O)C[C@@H](OC(=O)CC)[C@@H]3OC)O[C@@H]2C)C[C@@]1(C)OC(=O)CC`, the MIC was found to be 0.5 µg/mL (≈ 0.473 µM) in assay [1]; 0.015 µg/mL (≈ 0.0142 µM) in assay [2]; 8 µg/mL (≈ 7.57 µM) in [3]; 8 µg/mL (≈ 7.57 µM) in assay [4]; 8 µg/mL (≈ 7.57 µM) in assay [5]; 0.13 µg/mL (≈ 0.123 µM) in assay [6]. In addition, the MIC in assay [7] came out at 0.25 µg/mL (≈ 0.236 µM); in assay [8] it was 0.03 µg/mL (≈ 0.0284 µM); in assay [9] it was 0.03 µg/mL (≈ 0.0284 µM); in assay [10], 0.06 µg/mL (≈ 0.0567 µM); in assay [11], 128 µg/mL (≈ 121 µM); in assay [12] it was 0.25 µg/mL (≈ 0.236 µM). The figures for the MIC in assay [13], in [14] and in assay [15] were 8 µg/mL (≈ 7.57 µM), 16 µg/mL (≈ 15.1 µM) and 16 µg/mL (≈ 15.1 µM), respectively.

In the case of `CCNC(=O)O[C@H]1[C@H](C)O[C@@H](O[C@H]2[C@H](N(C)C)[C@@H](O)[C@H](O[C@H]3[C@@H](CC=O)C[C@@H](C)[C@@H](O)CN(C)CCC[C@H](C/C=C/c4cccnc4)OC(=O)C[C@@H](OC(=O)CC)[C@@H]3OC)O[C@@H]2C)C[C@@]1(C)OC(=O)CC`, the MIC in [1] was determined as 0.5 µg/mL (≈ 0.496 µM); in [2] it was 0.015 µg/mL (≈ 0.0149 µM); in [3], 32 µg/mL (≈ 31.8 µM); in assay [4], 32 µg/mL (≈ 31.8 µM); in [5] it was 32 µg/mL (≈ 31.8 µM); in assay [6] it was 0.5 µg/mL (≈ 0.496 µM). Besides, the MIC in [7] is 0.5 µg/mL (≈ 0.496 µM); in [8] it was 0.06 µg/mL (≈ 0.0596 µM); in assay [9], 0.06 µg/mL (≈ 0.0596 µM); in [10], 0.13 µg/mL (≈ 0.129 µM); in [11], more than 64 µg/mL; in assay [12], 0.5 µg/mL (≈ 0.496 µM). For the same compound, the figures for the MIC in assay [13], in assay [14] and in [15] were 4 µg/mL (≈ 3.97 µM), 16 µg/mL (≈ 15.9 µM) and 32 µg/mL (≈ 31.8 µM), respectively.

`CCNC(=O)O[C@H]1[C@H](C)O[C@@H](O[C@H]2[C@H](N(C)C)[C@@H](O)[C@H](O[C@H]3[C@@H](CC=O)C[C@@H](C)[C@@H](O)CN(C)CCC[C@H](C/C=C/c4ccc(N)nc4)OC(=O)C[C@@H](OC(=O)CC)[C@@H]3OC)O[C@@H]2C)C[C@@]1(C)OC(=O)CC`: the MIC in assay [1] turned out to be 1 µg/mL (≈ 0.978 µM); in assay [2], 0.03 µg/mL (≈ 0.0293 µM); in assay [3], 8 µg/mL (≈ 7.83 µM); in assay [4] it was 8 µg/mL (≈ 7.83 µM); in assay [5], 8 µg/mL (≈ 7.83 µM); in [6], 0.25 µg/mL (≈ 0.245 µM). Also, the MIC in [7] was 0.5 µg/mL (≈ 0.489 µM); in [8] it was 0.06 µg/mL (≈ 0.0587 µM); in assay [9], 0.06 µg/mL (≈ 0.0587 µM); in assay [10] it was 0.13 µg/mL (≈ 0.127 µM); in assay [11], more than 32 µg/mL; in assay [12], 0.5 µg/mL (≈ 0.489 µM). The MIC in assay [13] was 4 µg/mL (≈ 3.91 µM); in assay [14], 16 µg/mL (≈ 15.7 µM); in assay [15] it was 32 µg/mL (≈ 31.3 µM).

Values taken from ChEMBL document CHEMBL1156987, “Novel azalides derived from 16-membered macrolides. III. Azalides modified at the C-15 and 4'' positions: Improved antibacterial activities” (Bioorg Med Chem, 2010).
